The values below come from US11058688B2, “Imidazopiperazine inhibitors of transcription activating proteins” (Board of Regents, The University of Texas System, priority 2018, dated 2021).

Where only a bound is given, the exact number is not on record here.

The target of experiment [1] is BRD4(49-170) bromodomain (Homo sapiens (Human), UniProt O60885). The experiment in a line: BRD4 AlphaScreen Assay. The conditions noted are these: binding to biotin-H4(1-21) Ac-K5/8/12/16 peptide. As to the method:
(§1) Specific binding of the CBP or BRD4 bromodomain to the acetylated peptide derived from the H4 histone substrate (tetra acetylated H4(1-21) Ac-K5/8/12/16) was measured in absence or presence of inhibitors.
(§2) The standard dose response curves were fitted by Genedata Screener software using the variable-slope model: Signal=Signalnegative control+(SignalDMSO control−Signalnegative control)/(1+(IC50/Dose)^Hill slope).
(§3) Only Signal and Dose in the equation were treated as known values.
(In general: In Alpha technology, singlet oxygen from a donor bead excites a nearby acceptor bead.)

Experiment [2] deals with GST-CBP(1081-1197) bromodomain (Homo sapiens (Human), UniProt Q92793). Briefly: CBP AlphaScreen Assay. The conditions noted are these: binding to biotin-H4(1-21) Ac-K5/8/12/16 peptide. The procedure:
as §1, §2, §3

Chain of GST-CBP(1081-1197) bromodomain (Q92793 1081-1197): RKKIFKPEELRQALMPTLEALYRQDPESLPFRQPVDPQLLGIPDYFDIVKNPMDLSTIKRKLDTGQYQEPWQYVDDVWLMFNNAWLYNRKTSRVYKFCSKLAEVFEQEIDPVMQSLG

Regarding `CNC(=O)N1CCn2c(C3CC3)nc(-c3cncc4cc(-c5cnn(C)c5)c(C(F)F)cc34)c2C1` [Example 40, 3-Cyclopropyl-1-(6-(difluoromethyl)-7-(1-methyl-1H-pyrazol-4-yl)isoquinolin-4-yl)-N-methyl-5,6-dihydroimidazo[1,5-a]pyrazine-7(8H)-carboxamide], the figures for the IC50 in experiment [1] and in experiment [2] were 4780 nM and 2 nM, respectively. As for `CNC(=O)N1CCn2c(C3CC(F)(F)C3)nc(-c3cccc4nc(-c5cnn(C)c5)c(C#N)cc34)c2C1` [Example 67, 1-(3-cyano-2-(1-methyl-1H-pyrazol-4-yl)quinolin-5-yl)-3-(3,3-difluorocyclobutyl)-N-methyl-5,6-dihydroimidazo[1,5-a]pyrazine-7(8H)-carboxamide], the IC50 – broadly, the concentration that gives 50% inhibition – is more than 25000 nM in experiment [1] and 36 nM in experiment [2]. Consider `CNC(=O)N1CCn2c(C3CCS(=O)(=O)CC3)nc(-c3ccc4c(c3)c(-c3cnn(C)c3)nn4C)c2C1` [Example 15, 3-(1,1-Dioxothian-4-yl)-N-methyl-1-[1-methyl-3-(1-methylpyrazol-4-yl)indazol-5-yl]-6,8-dihydro-5H-imidazo[1,5-a]pyrazine-7-carboxamide], for which the results for the IC50 in experiment [1] and in experiment [2] were 21900 nM and 46 nM, respectively. In the same order, the values of `CNC(=O)N1CCn2c(C3CC(F)(F)C3)nc(-c3c(F)ccc4cc(C5CCOCC5)ncc34)c2C1` [Example 91, 3-(3,3-difluorocyclobutyl)-1-(7-fluoro-3-(tetrahydro-2H-pyran-4-yl)isoquinolin-8-yl)-N-methyl-5,6-dihydroimidazo[1,5-a]pyrazine-7(8H)-carboxamide] are 22400 nM and 48 nM. For `CNC(=O)N1CCn2c(C3CCOCC3)nc(-c3cccc4nc(-c5cnn(C)c5)c(C(F)(F)F)cc34)c2C1` [Example 65, N-methyl-1-(2-(1-methyl-1H-pyrazol-4-yl)-3-(trifluoromethyl)quinolin-5-yl)-3-(tetrahydro-2H-pyran-4-yl)-5,6-dihydroimidazo[1,5-a]pyrazine-7(8H)-carboxamide] the same measures were 13700 nM and 4 nM. As for `CNC(=O)N1CCn2c(C3CC3)nc(-c3ccnc4nc(-c5cnn(C)c5)c(C(F)F)cc34)c2C1` [Example 36, 3-Cyclopropyl-1-(6-(difluoromethyl)-7-(1-methyl-1H-pyrazol-4-yl)-1,8-naphthyridin-4-yl)-N-methyl-5,6-dihydroimidazo[1,5-a]pyrazine-7(8H)-carboxamide], the IC50 in experiment [1] was 9710 nM; in experiment [2] it was 38 nM.

As for `CC(=O)N1CCn2c(C3CC3)nc(N3CCCc4cc(-c5cccc(S(N)(=O)=O)c5)ccc43)c2C1` [Example 120, 3-(1-(7-acetyl-3-cyclopropyl-5,6,7,8-tetrahydroimidazo[1,5-a]pyrazin-1-yl)-1,2,3,4-tetrahydroquinolin-6-yl)benzenesulfonamide], the IC50 in experiment [1] is more than 25000 nM; in experiment [2] it was 358 nM. For `CNC(=O)N1CCn2c(C3CCOCC3)nc(-c3cccc4nc(-c5cnn(C)c5)c(C(F)F)cc34)c2C1` [Example 123, 1-(3-(difluoromethyl)-2-(1-methyl-1H-pyrazol-4-yl)quinolin-5-yl)-N-methyl-3-(tetrahydro-2H-pyran-4-yl)-5,6-dihydroimidazo[1,5-a]pyrazine-7(8H)-carboxamide] the same measures were more than 25000 nM and 19 nM. Regarding `CNC(=O)N1CCn2c(C3CC3)nc(-c3cccc4nc(N5CCOCC5)c(C#N)cc34)c2C1` [Example 24, 1-(3-Cyano-2-morpholinoquinolin-5-yl)-3-cyclopropyl-N-methyl-5,6-dihydroimidazo[1,5-a]pyrazine-7(8H)-carboxamide], the IC50 is 9110 nM in experiment [1] and 6 nM in experiment [2].

As to `CNC(=O)N1CCn2c(C3CCC(F)(F)CC3)nc(-c3cccc4cc(-c5cn(C)nc5C)ncc34)c2C1` [Example 76, 3-(4,4-difluorocyclohexyl)-1-(3-(1,3-dimethyl-1H-pyrazol-4-yl)isoquinolin-8-yl)-N-methyl-5,6-dihydroimidazo[1,5-a]pyrazine-7(8H)-carboxamide], the IC50 in experiment [1] came out at 11900 nM; in experiment [2], 3 nM. Consider `CNC(=O)N1CCn2c(C3CCC(F)(F)CC3)nc(-c3cccc4cc(-c5cnc(C)s5)ncc34)c2C1` [Example 97, 3-(4,4-difluorocyclohexyl)-N-methyl-1-(3-(2-methylthiazol-5-yl)isoquinolin-8-yl)-5,6-dihydroimidazo[1,5-a]pyrazine-7(8H)-carboxamide], for which the IC50 in experiment [1] was 3320 nM; in experiment [2], 1 nM. In the same order, the values of `CNC(=O)N1CCn2c(C3CC3)nc(N3CCCc4nc(-c5cnn(C)c5)c(C(F)(F)F)cc43)c2C1` [Example 33, 3-Cyclopropyl-N-methyl-1-(6-(1-methyl-1H-pyrazol-4-yl)-7-(trifluoromethyl)-3,4-dihydro-1,5-naphthyridin-1(2H)-yl)-5,6-dihydroimidazo[1,5-a]pyrazine-7(8H)-carboxamide] are more than 10000 nM and 40 nM. In the same order, the values of `CC(=O)N1CCn2c(C3CC3)nc(N3CCCc4cc(-c5ccnc(C(F)(F)F)c5)ccc43)c2C1` [Example 118, 1-(3-cyclopropyl-1-(6-(2-(trifluoromethyl)pyridin-4-yl)-3,4-dihydroquinolin-1(2H)-yl)-5,6-dihydroimidazo[1,5-a]pyrazin-7(8H)-yl)ethan-1-one] are more than 25000 nM and 715 nM. As to `CNC(=O)N1CCn2c(C3CC3)nc(-c3cccc4nc(-c5cn(C)nc5C)c(C#N)cc34)c2C1` [Example 98, 1-(3-cyano-2-(1,3-dimethyl-1H-pyrazol-4-yl)quinolin-5-yl)-3-cyclopropyl-N-methyl-5,6-dihydroimidazo[1,5-a]pyrazine-7(8H)-carboxamide], the IC50 in experiment [1] was 9580 nM; in experiment [2] it was 25 nM. For `CNC(=O)N1CCn2c(C3CC3)nc(N3CCCc4cc(-c5cnn(C)c5)c(C(F)F)cc43)c2C1` [Example 3, 3-cyclopropyl-1-(7-(difluoromethyl)-6-(1-methyl-1H-pyrazol-4-yl)-3,4-dihydroquinolin-1(2H)-yl)-N-methyl-5,6-dihydroimidazo[1,5-a]pyrazine-7(8H)-carboxamide], the IC50 was more than 10000 nM in experiment [1] and 5 nM in experiment [2]. On to `CC(=O)N1CCn2c(C3CC3)nc(N3CCCc4cc(-c5ccc(=O)n(C)c5)ccc43)c2C1` [Example 113, 5-(1-(7-acetyl-3-cyclopropyl-5,6,7,8-tetrahydroimidazo[1,5-a]pyrazin-1-yl)-1,2,3,4-tetrahydroquinolin-6-yl)-1-methylpyridin-2(1H)-one], for which the IC50 was found to be 3460 nM in experiment [1] and 193 nM in experiment [2]. As to `COC(=O)N1CCn2c(C3CCOC3)nc(-c3ccc4c(c3)c(-c3cnn(C)c3)nn4C)c2C1` (stereo not shown) [Example 5, Methyl 1-(1-methyl-3-(1-methyl-1H-pyrazol-4-yl)-1H-indazol-5-yl)-3-(tetrahydrofuran-3-yl)-5,6-dihydroimidazo[1,5-a]pyrazine-7(8H)-carboxylate], the IC50 in experiment [1] came out at 13900 nM. Same read-out and setting: under `CC(=O)N1CCn2c(C3CN(C(C)=O)C3)nc(-c3ccc4c(c3)c(-c3cnn(C)c3)nn4C)c2C1` [Example 12, 1-(3-(7-Acetyl-1-(1-methyl-3-(1-methyl-1H-pyrazol-4-yl)-1H-indazol-5-yl)-5,6,7,8-tetrahydroimidazo[1,5-a]pyrazin-3-yl)azetidin-1-yl)ethan-1-one] stands more than 10000 nM.
